In ChEMBL document CHEMBL3228036, “A new chemical series active against African trypanosomes: benzyltriphenylphosphonium salts” (J Med Chem, 1979) one finds Activity data, which are given here for five compounds.

The subject of data set [1] is Trypanosoma brucei rhodesiense. The data set can be described thus: […] activity against Trypanosoma brucei rhodesiense Wellcome CT infected in ICR/HA mouse assessed as curated mouse at 424 mg/kg, po treated within 2 hrs of parasite infection measured up to 30 days. The format is functional, organism-based. Also noted: dose 424 mg/kg.
For data set [2], the system named is Trypanosoma brucei rhodesiense. The data set can be described thus: […] activity against Trypanosoma brucei rhodesiense Wellcome CT infected in ICR/HA mouse assessed as curated mouse at 26.5 mg/kg, po treated within 2 hrs of parasite infection measured up to 30 days. In kind it is functional, organism-based. Also noted: dose 26.5 mg/kg.
Data set [3] has as its system Trypanosoma brucei rhodesiense. The data set can be described thus: […] activity against Trypanosoma brucei rhodesiense Wellcome CT infected in ICR/HA mouse assessed as curated mouse at 424 mg/kg, sc treated within 2 hrs of parasite infection measured up to 30 days. In kind it is functional, organism-based. The arrangement: dose 424 mg/kg.
Data set [4] relates to Trypanosoma brucei rhodesiense. The data set can be described thus: […] activity against Trypanosoma brucei rhodesiense Wellcome CT infected in ICR/HA mouse assessed as curated mouse at 13.3 mg/kg, po treated within 2 hrs of parasite infection measured up to 30 days. In kind it is functional, organism-based. The arrangement: dose 13.3 mg/kg.
In data set [5] the test system is Trypanosoma brucei rhodesiense. The data set can be described thus: […] activity against Trypanosoma brucei rhodesiense Wellcome CT infected in ICR/HA mouse assessed as curated mouse at 106 mg/kg, po treated within 2 hrs of parasite infection measured up to 30 days. The format is functional, organism-based. The arrangement: dose 106 mg/kg.
Data set [6] deals with Trypanosoma brucei rhodesiense. Kind of data set: […] activity against Trypanosoma brucei rhodesiense Wellcome CT infected in ICR/HA mouse assessed as curated mouse at 212 mg/kg, po treated within 2 hrs of parasite infection measured up to 30 days. In kind it is functional, organism-based. Also noted: dose 212 mg/kg.
The test system of data set [7] is Trypanosoma brucei rhodesiense. Kind of data set: […] activity against Trypanosoma brucei rhodesiense Wellcome CT infected in ICR/HA mouse assessed as curated mouse at 53 mg/kg, po treated within 2 hrs of parasite infection measured up to 30 days. The format is functional, organism-based. The arrangement: dose 53 mg/kg.
For data set [8], the system named is Trypanosoma brucei rhodesiense. Kind of data set: […] activity against Trypanosoma brucei rhodesiense Wellcome CT infected in ICR/HA mouse assessed as curated mouse at 13.3 mg/kg, sc treated within 2 hrs of parasite infection measured up to 30 days. The format is functional, organism-based. Also noted: dose 13.3 mg/kg.
In data set [9] the test system is Trypanosoma brucei rhodesiense. The data set can be described thus: […] activity against Trypanosoma brucei rhodesiense Wellcome CT infected in ICR/HA mouse assessed as curated mouse at 26.5 mg/kg, sc treated within 2 hrs of parasite infection measured up to 30 days. The format is functional.
In data set [10] the test system is Mus musculus. The data set can be described thus: Toxicity in Trypanosoma brucei rhodesiense Wellcome CT infected ICR/HA mouse assessed as mortality at 424 mg/kg, po treated within 2 hrs of parasite infection measured up to 30 days. In kind it is organism-based. The arrangement: dose 424 mg/kg, route oral. The note with it: in vivo.
In data set [11] the test system is Mus musculus. Kind of data set: Toxicity in Trypanosoma brucei rhodesiense Wellcome CT infected ICR/HA mouse assessed as mortality at 212 mg/kg, po treated within 2 hrs of parasite infection measured up to 30 days. The format is organism-based. Also noted: dose 212 mg/kg, route oral. The following applies: in vivo.
In data set [12] the test system is Mus musculus. The data set can be described thus: Toxicity in Trypanosoma rhodesiense Wellcome CT infected ICR/HA mouse assessed as mortality at 106 mg/kg, sc treated within 2 hrs of parasite infection measured up to 30 days. The note with it: in vivo. Also noted: dose 106 mg/kg, route subcutaneous. In kind it is organism-based.
Data set [13] has as its system Mus musculus. Kind of data set: Toxicity in Trypanosoma brucei rhodesiense Wellcome CT infected ICR/HA mouse assessed as mortality at 424 mg/kg, sc treated within 2 hrs of parasite infection measured up to 30 days. The format is organism-based. Also noted: dose 424 mg/kg, route subcutaneous. The note with it: in vivo.
The test system of data set [14] is Trypanosoma brucei rhodesiense. The data set can be described thus: […] activity against Trypanosoma brucei rhodesiense Wellcome CT infected in ICR/HA mouse assessed as curated mouse at 6.5 mg/kg, sc treated within 2 hrs of parasite infection measured up to 30 days. In kind it is functional, organism-based. The arrangement: dose 6.5 mg/kg.
In data set [15] the test system is Trypanosoma brucei rhodesiense. The data set can be described thus: […] activity against Trypanosoma brucei rhodesiense Wellcome CT infected in ICR/HA mouse assessed as curated mouse at 53 mg/kg, sc treated within 2 hrs of parasite infection measured up to 30 days. In kind it is functional, organism-based. The arrangement: dose 53 mg/kg.
Data set [16] has as its system Trypanosoma brucei rhodesiense. Kind of data set: […] activity against Trypanosoma brucei rhodesiense Wellcome CT infected in ICR/HA mouse assessed as curated mouse at 106 mg/kg, sc treated within 2 hrs of parasite infection measured up to 30 days. Also noted: dose 106 mg/kg. The format is functional, organism-based.
Data set [17] relates to Trypanosoma brucei rhodesiense. The data set can be described thus: […] activity against Trypanosoma brucei rhodesiense Wellcome CT infected in ICR/HA mouse assessed as curated mouse at 212 mg/kg, sc treated within 2 hrs of parasite infection measured up to 30 days. The format is functional, organism-based. The arrangement: dose 212 mg/kg.
Data set [18] concerns Trypanosoma brucei rhodesiense. Kind of data set: […] activity against Trypanosoma brucei rhodesiense Wellcome CT infected in ICR/HA mouse assessed as curated mouse at 6.5 mg/kg, po treated within 2 hrs of parasite infection measured up to 30 days. The format is functional, organism-based. Also noted: dose 6.5 mg/kg.
The subject of data set [19] is Mus musculus. Kind of data set: Toxicity in Trypanosoma brucei rhodesiense Wellcome CT infected ICR/HA mouse assessed as mortality at 212 mg/kg, sc treated within 2 hrs of parasite infection measured up to 30 days. The note with it: in vivo. The arrangement: dose 212 mg/kg, route subcutaneous. In kind it is organism-based.

The structures appear in SMILES notation. The source made the active and inactive calls. The calls are words filed in the database; no cut-off is given here.

Take `FC(F)(F)c1ccc(C[P+](c2ccccc2)(c2ccccc2)c2ccccc2)cc1.[Cl-]`: the result in data set [1], in data set [2], in [3], in data set [4], in data set [5] and in [6] was inactive. In addition, the result in data set [7], in data set [8] and in [9] was inactive. Moreover, the Activity entry in [10], in [11], in data set [12] and in data set [13] was “Toxic” each time.

With `[Br-].c1ccc(C[P+](c2ccccc2)(c2ccccc2)c2ccccc2)cc1`, the outcome in data set [2], in data set [14], in data set [3], in data set [4], in data set [6] and in [7] was inactive. The result in data set [8], in [9], in data set [15] and in data set [16] was inactive. Also, the Activity result in data set [11] and in data set [13] was “Toxic” throughout.

For the compound `Cc1ccccc1[P+](Cc1ccccc1)(c1ccccc1)c1ccccc1.[Cl-]`, the result in data set [1], in data set [2], in data set [14], in data set [3], in data set [4] and in data set [7] was inactive. Moreover, the result in data set [8], in [15] and in data set [16] was inactive. In addition, the Activity result in data set [10] and in data set [13] was “Toxic” throughout.

As to `N=C(N)c1ccc(/C=C/c2ccc(C(=N)N)cc2)cc1` [STILBAMIDINE], the outcome in data set [1], in data set [3], in data set [17], in data set [5], in data set [6] and in [7] was Active. For the same compound, the result in data set [8], in data set [15] and in data set [16] was Active. In addition, in data set [18], the outcome was inactive. In data set [9] (route subcutaneous), the Activity was determined as 98%.

With `Cc1ccc([P+](Cc2ccccc2)(c2ccccc2)c2ccccc2)cc1.[Cl-]`, the outcome in [1], in [2], in data set [14], in [3], in [4] and in [17] was inactive. The result in data set [5], in data set [6], in data set [7], in data set [8] and in [9] was inactive. The Activity entry in data set [19], in data set [10], in data set [11] and in data set [13] was “Toxic” throughout.
